Source: patent US5594001A, “Polycyclic systems, and derivatives thereof, as neurotransmitter release enhancers useful in the treatment of cognitive disorders” (The DuPont Merck Pharmaceutical Company, priority 1994, dated 1997)
Counter-ions that a name gives are not always drawn.

What was measured:
[1] = test system: ACh level in the rat hippocampus; test: Microdialysis, ACh levels in the rat hippocampus in vivo; set-up: species or system rat (male Wistar); conditions: for AUC, Area % under the curve / Peak, maximal % increase of ACh release over baseline / time of Peak after administration / Duration, minutes of release above statistical significance: Table IV; for Duration, minutes of release above statistical significance: NSP = no significant points
Description: Male Wistar Rats are anaesthetized and guide cannulas stereotaxically implanted into the brain at the level of the dorsal hippocampus. Following a minimum recovery period of 72 h, dialysis probes (0.5 mm diameter, 4.0 mm long, from BAS) are inserted into the hippocampus through the guide cannulas. The probes are perfused at a rate of 2 μl/min with artificial cerebrospinal fluid containing 100 μM physostigmine sulfate (a cholinesterase inhibitor). Rats are allowed to acclimate for 2 hours prior to sample collection. Dialysate samples are collected every 20 min (40 μl) and immediately injected onto a high performance liquid chromatograph equipped for electrochemical detection (HPLC-EC) of acetylcholine (ACh). Following collection of 3 baseline samples, drugs or vehicle control are administered in 0.01 ml/g body weight and dialysate samples are collected for an additional 3 h. The ACh peak heights of the 3 samples prior to drug administration are averaged together to determine baseline ACh levels. ACh peak heights post drug administration are measured and used to determine percent change over baseline ACh levels. At the end of experiments, probe placement is verified histologically.
ACh is separated by reverse phase chromatography (Hamilton PRP-1 column 150×4.5 mm) and converted to acetate, betaine and hydrogen peroxide on an immobilized enzyme reactor column (BAS). Hydrogen peroxide is then detected electrochemically. Mobile phase for the chromatography consists of 0.2M Na2 HPO4, 0.1 mM EDTA, 0.5 mM SOS, 0.9 mM TMA.Cl, with pH adjusted to 8.0 with phosphoric acid and […] Kathon CG (ESA) added to each liter of mobile phase to retard bacterial growth.
FIGS. 1 and 2 show the effects of fluorine substitution to the pendant groups of the anthrone and azafluorene core series on the ability of compounds to increase the level of ACh in the rat hippocampus in vivo. All compounds were tested at 5 mg/kg except Ex. No 64 which was administered at 1 mg/kg. […] This was observed even though the compound was administered by a route (i.p.) which should lead to greater bioavailability than the oral route. Example 68 of the present invention, the bis-fluorinated analog of Example 611 or U.S. Pat. No. 5,173,489, on the other hand, led to a 2-fold increase in ACh levels which was maintained for over 1 hour (FIG. 1). The anthrone compound Ex. No. 440 of U.S. Pat. No. 5,173,489, at 5 mg/kg, led to a peak ACh level of 72% over baseline (FIG. 2). Ex. No. 64 of the present invention, which is the bis-fluoro analog of Ex. No. 440 of U.S. Pat. No. 5,173,489, at 1 mg/kg, led to a delayed increase in ACh levels reaching a peak of over 100% above baseline (FIG. 2). In contrast to the observed effects of Example 440 of U.S. Pat. No. 5,173,489, the increase in ACh level after administration of Example 64 of the present invention was maintained for the entire duration of testing (3 hours).

[2] = test system: stimulus-induced acetylcholine release, slices from the parietal cortex; test: Neurotransmitter (ACh) release assay, rat cortex slices, K+ stimulated; type: cell-based, rat (male Wistar); conditions: for EC50: Table III; for activation at 10 µM: Table II, % increase of drug-induced ACh release
Description: The neurotransmitter release activities of the compounds of this invention were determined using standard biochemical assay procedures for example, the neurotransmitter release assay as described below.
Neurotransmitter release assay.
The neurotransmitter (Ach) release activities of the compounds of this invention were determined by the assay as described by Nickolson, et al., Drug Development Research, (1990) 19: 285-300, a modification of the procedure described by Mulder, et al., Brain Res., (1974) 70: 372.
Male Wistar rats (Charies River) weighing 175-200 grams were used. Rats were decapitated and brains were dissected immediately. Slices (0.3 mm thick) from the parietal cortex were prepared (approximately 100 mg wet weight) and were incubated in 10 ml KrebsRinger medium (KR) containing NaCl (116 mM), KCl (3 mM), CaCl2 (1.3 mM), MgCl2 (1.2 mM), KH2 PO4 (1.2 mM), Na2 SO4 (1.2 mM), NaHCO3 (25.0 mM), and glucose (11.0 mM), to which was added 10 uCi ^3 H-choline (specific activity approximately 35 Ci/mM; NEN) and […] unlabeled choline to give a final concentration of one micromole. The brain preparations were incubated for 30 min. at 37° C. under a steady flow of 95% O2 /5% CO2. Under these conditions, part of the radioactive choline taken up by the preparation was converted into radioactive acetylcholine (ACh) by the cholinergic nerve endings stored in synaptic vesicles, and released upon depolarization by high potassium ion (K+) containing media.
After labelling of the ACh stores, the slices were washed three times with non-radioactive KR medium and transferred to a superfusion apparatus to measure the drug effects on ACh release. The superfusion apparatus consisted of 10 thermostated glass columns of 5 mm diameter that were provided with GF/F glass fiber filters to support the slices (approximately 10 mg tissue/column). Superfusion was carried out in KR-medium (0.3 ml/min.) containing […] hemicholine-3 (HC-3). The HC-3 prevents the reuptake of choline formed during the superfusion from phospholipids and released ACh, which would be converted into unlabeled ACh and released in preference to the preformed labeled ACh. The medium was delivered by a 25-channel peristaltic pump (Ismatec by Brinkman) and warmed to 37° C. in a thermostated stainless steel coil before entering the superfusion column. Each column was provided with a 4-way slider valve (Beckmann instruments) which allowed rapid change of low to high K+/KR-medium, and with two 10-channel 3-way valves that were used to change from drug-free to drug-containing low and high K+/KR-medium. After 15 min. of washout of non-specifically bound radioactivity, collection of 4 min. fractions was initiated. After three 4 min. collections, the original medium was changed to a KR-medium in which the KCl concentration had been increased to 25 mM (high K+ medium) (S1). Depolarization-induced stimulation of release by high K+/KR-medium lasted for 4 min. Drug free low and high K+/KR-media were then substituted by drug- and vehicle-containing low- and high-K+/KR-medium, and superfusion was continued for three 4 min. collections with low K+/KR-medium, one 4 min. collection with high K+/KR-medium (s2), and two 4 min. collections with low K+/KR-medium.
Drug was added to the media by 100-fold dilutions of appropriate concentrations of the drug (in 0.9% saline) with either low- or high-K+/KR-medium. For comparative purposes, linopirdine was also run.
All superfusion fractions were collected in liquid scintillation counting vials. After superfusion, the slices were removed from the superfusion columns and extracted with 1.0 ml of 0.1N HCl. Liquiscint (NEN) counting fluid (12 ml) was added to superfusion fractions and extracts, and the samples were counted in a Packard Tricarb Liquid Scintillation Counter. No corrections were made for quenching. […]

Row | SMILES | EC50 [2] | AUC, Area % under the curve ([1]; 5 mg/kg, vehicle methocel) | Peak, maximal % increase of ACh release over baseline ([1]; 5 mg/kg, vehicle methocel) | time of Peak after administration ([1]; 5 mg/kg, vehicle methocel) | Duration, minutes of release above statistical significance ([1]; 5 mg/kg, vehicle methocel) | also measured
1 | Fc1cc(CC2(Cc3ccnc(F)c3)c3cccnc3-c3sccc32)ccn1 [Example 69, 4,4-Bis((2-fluoro-4-pyridinyl)methyl)-4H-thieno[3',2':4,5]cyclopenta[1,2-b]pyridine] | 650 nM | – | – | – | – | AUC, Area % under the curve ([1]; 5 mg/kg, vehicle water): 285 ± 40%; Peak, maximal % increase of ACh release over baseline ([1]; 5 mg/kg, vehicle water): 44 ± 14%; time of Peak after administration ([1]; 5 mg/kg, vehicle water): 20 min; Duration, minutes of release above statistical significance ([1]; 5 mg/kg, vehicle water): 40 min
2 | COc1ccc2c(c1)C(Cc1ccnc(F)c1)(Cc1ccnc(F)c1)c1ccccc1-2 [Example 71, 9,9-Bis((2-fluoro-4-pyridinyl)methyl)-2-methoxyfluorene] | 1240 nM | 126 ± 74% | 34 ± 16% | 60 min | NSP | –
3 | O=C1c2ccccc2C(Cc2ccnc(F)c2)(Cc2ccnc(F)c2)c2ccccc21 [Example 64, 10,10-Bis((2-fluoro-4-pyridinyl)methyl)-9(10H)-anthracenone] | 660 nM | – | – | – | – | peak ACh level above baseline ([1]; 1 mg/kg oral, FIG. 2, delayed increase): over 100%; time for which the increase in ACh level was maintained ([1]; 1 mg/kg oral, FIG. 2, entire duration of testing): ≥ 3 h; AUC, Area % under the curve ([1]; 0.5 mg/kg, vehicle methocel): 253 ± 156%; Peak, maximal % increase of ACh release over baseline ([1]; 0.5 mg/kg, vehicle methocel): 40 ± 21%; time of Peak after administration ([1]; 0.5 mg/kg, vehicle methocel): 40 min; Duration, minutes of release above statistical significance ([1]; 0.5 mg/kg, vehicle methocel): NSP; AUC, Area % under the curve ([1]; 1 mg/kg, vehicle methocel): 711 ± 158%; Peak, maximal % increase of ACh release over baseline ([1]; 1 mg/kg, vehicle methocel): 115 ± 27%; time of Peak after administration ([1]; 1 mg/kg, vehicle methocel): 180 min; Duration, minutes of release above statistical significance ([1]; 1 mg/kg, vehicle methocel): >
4 | Fc1cc(CC2(Cc3ccnc(F)c3)c3ccccc3-c3ncncc32)ccn1 [Example 81, 5,5-Bis((2-fluoro-4-pyridinyl)methyl)-5H-indeno-[1,2-d]pyrimidine] | 640 nM | 250 ± 68% | 53 ± 17% | 60 min | 100 min | –
5 | Fc1cc(CC2(Cc3ccnc(F)c3)c3cccnc3-c3cccnc32)ccn1 [Example 75, 9,9-Bis((2-fluoro-4-pyridinyl)methyl)-cyclopenta[1,2-b:3,4-b']dipyridine] | 1210 nM | 302 ± 35% | 67 ± 12% | 20 min | 60 min | –
6 | Nc1cccc2c1C(Cc1ccnc(F)c1)(Cc1ccnc(F)c1)c1ccccc1-2 [Example 96, 9,9-Bis((2-fluoro-4-pyridinyl)methyl)-9H-fluoren-1-amine] | 570 nM | – | – | – | – | –
7 | Fc1cc(CC2(Cc3ccnc(F)c3)c3ccccc3-c3nccnc32)ccn1 [Example 80, 9,9-Bis((2-fluoro-4-pyridinyl)methyl)-9H-indeno-[1,2-b]pyrazine] | 2330 nM | – | – | – | – | –
8 | N#Cc1cccc(CC2(Cc3ccncc3)c3ccccc3-c3sccc32)c1 (stereo not drawn) [Example 2, 3-[4-(4-Pyridinylmethyl)-4H-indeno[1,2-B]thiophen-4-ylmethyl-benzonitrile Hydrobromide Hydrate] | – | – | – | – | – | activation at 10 µM [2]: 220%
9 | COc1ccc2c(c1)C(Cc1ccnc(F)c1)(Cc1ccnc(F)c1)c1ccccc1C2=O [Example 77, 10,10-Bis((2-fluoro-4-pyridinyl)methyl)-3-methoxy-9(10H)-anthracenone] | 660 nM | – | – | – | – | –
10 | c1ccc(CC2(Cc3ccncc3)c3ccccc3-c3sccc32)cc1 (stereo not drawn) [Example 8] | – | – | – | – | – | activation at 10 µM [2]: 130%
